Assays:
[1] = test system: CYP5204A1; experiment: Real time RT PCR of P450 gene expression in fungus exposed to progesterone; assay type: cell-based, R. oryzae; conditions: 300 µM progesterone, up-regulated within 20 minutes, Wilcoxon's test p value < 0.05
Method: (§1) Samples of 2 µg of RNA were treated with DNAse 1 and reverse-transcribed with random hexamer primers using RevertAid™ H Minus First Strand cDNA Synthesis Kit (Fermentas, Canada) following the manufacturer's instructions. Based on multiple alignments of deduced P450 families, the amplification of the cDNA of 31 P450 genes was carried out under conventional conditions using gene-specific primers which were designed with Primer Express (Applied Biosystems, CA, USA, (AB)). The specificity of each primer pair was verified by sequencing of amplified genomic fragments (Sequiserve, Vaterstetten, Germany).
(§2) Quantitative RT PCR using SYBR green Mastermix (AB) was performed for 9 selected genes in an ABI Prism 7500 Real Time System (AB) according to the manufacturer's instructions. Following amplification, a dissociation curve was performed on all PCR products to additionally ensure their specificity. The relative quantity of cDNA was calculated with the standard curve method and calibrated with a R. oryzae housekeeping Rossb1 gene (Broad ref. RO3G_01864.1), a homologue of the Saccharomyces cerevisiae ribosome-associated Hsp70 (SSB1), whose expression is not affected by steroid treatment. The expression levels of each P450 gene were normalized to those in the untreated control. The statistical significance of up- or down-regulation was evaluated using Wilcoxon's test with a cutoff p-value < 0.05.

[2] = test system: CYP509C12; experiment: as above; assay type: cell-based, R. oryzae; conditions: 300 µM progesterone, up-regulated within 20 minutes, Wilcoxon's test p value < 0.05
Method: as §1, §2

[3] = test system: CYP509C10; conditions: 300 µM progesterone, up-regulated within 20 minutes, Wilcoxon's test p value < 0.05
Method: as §1, §2

[4] = test system: CYP509C12; experiment: Steroid hydroxylation assay of recombinant S. pombe strain SpoC12 expressing CYP509C12 (whole-cell biotransformation, HPLC and LC/MS); conditions: for efficiency of total steroid hydroxylation: 28 °C
Method: S. pombe cells, grown as described in the previous section, were washed with EMM, centrifuged (4000 × g, 5 min, 4 °C) and suspended in 10 mL of fresh medium to a final density of 10^8 cells mL^-1. […] 500 µL of SpoC12 yeast culture was taken after different time periods and the steroids were extracted twice with chloroform, evaporated, solved in acetonitrile, and analyzed by HPLC. The steroid extracts from whole cell cultures growing for 24 h were analyzed by LC/MS.
Reverse phase HPLC using an isocratic solvent system of acetonitrile:H2O 60:40 (v/v) as mobile phase, flow rate […], was carried out on a WellChrom system (Knauer, Berlin, Germany) composed of an auto-sampler AS-2050 plus, Mini-Star K-500 pump, Jet Stream II Plus thermostat, and an UV-detector WellChrom Spectro Photometer K-2600, equipped with a C18 ODS Hypersil 250 x 4.6 mm, 5 µm particle column from Thermo® (Waltham, MA, USA). Steroids were detected at 240 nm and the peak area calculation was done using the EuroChrom 2000 software (Knauer). Steroid standards were used to identify the HPLC peaks and to construct calibration curves. Concentrations of steroids were determined using calibration curves in the range of 0.05 -1 mg mL^-1 of each analyte. […] The peak area of a specific steroid at each time point was assessed relative to the total area of identified steroid peaks.
Mass measurements were run on a hybrid quadruple time of flight mass spectrometer (Q-TOF) provided with an orthogonal Z-spray ESI interface (Waters Micromass, Manchester, UK). Mass spectrometer was interfaced to an ultra performance liquid chromatography (UPLC) system based on a Waters Acquity (Waters, Milford, USA) binary pump with a BEH C-18 column (1.7 µm, 50 mm x 2.1 mm i.d.). The mobile phases consisted of water and acetonitrile with mixture of 0.1 % of formic acid in water. Compressed nitrogen (99.999 %, Messer, Slovenia) was used as both the drying and the nebulizing gas. The nebulizer gas flow rate was set to approximately 20 L h^-1 and the desolvation gas flow rate to 600 L h^-1. A cone voltage of 30 V and a capillary voltage of 2.7 kV were used in positive ion mode. The desolvation temperature was set to 250 °C and the source temperature to 150 °C. The mass resolution of approximately 9500 was used for determination of elemental composition with TOF mass spectrometer. Full width of the peak was measured at half of its maximum height. MS were acquired in centroid mode over an m/z range of 50-1000 in scan time 0.25 s and inter scan time 0.05 s. The data station operating software was Mass Lynx v 4.1 (Micromass, Manchester).

[5] = SpoC12, 300 µM steroid, 24 h, LC/MS

CC(=O)[C@H]1CC[C@H]2[C@@H]3CCC4=CC(=O)CC[C@]4(C)[C@H]3CC[C@]12C [progesterone]
transcript amount increase compared to the control [1]: at least 32 fold | transcript amount increase compared to the control [2]: at least 32 fold | transcript amount increase compared to the control [3]: at least 32 fold | slower rate of progesterone hydroxylation in recombinant fission yeast compared to R. oryzae cultures ([4]; SpoC12 versus R. oryzae cultures): 10 fold

C[C@]12CCC(=O)C=C1CC[C@@H]1[C@@H]2CC[C@@]2(C)[C@H]1CC[C@]2(O)C(=O)CO [RSS, 11-deoxycortisol]
efficiency of total steroid hydroxylation [4, 5]: 30% | share of 6β-hydroxylated derivative in total hydroxylated products [4, 5]: more than half

C[C@]12CC[C@H]3[C@@H](CCC4=CC(=O)CC[C@@]43C)[C@@H]1CC[C@@H]2O [testosterone]
efficiency of total steroid hydroxylation [4, 5]: 73%

C[C@]12CC[C@H]3[C@@H](CCC4=CC(=O)CC[C@@]43C)[C@@H]1CC[C@@H]2C(=O)CO [DOC, 11-deoxycorticosterone]
efficiency of total steroid hydroxylation [4, 5]: 96%
